Results: publication PMC9511493, “2-(Fluoromethoxy)-4′-(S-methanesulfonimidoyl)-1,1′-biphenyl (UCM-1306), an Orally Bioavailable Positive Allosteric Modulator of the Human Dopamine D1 Receptor for Parkinson’s Disease” (Journal of Medicinal Chemistry, 2022)

Assay: stability in mouse liver homogenate
Format: in vitro ADME
Conditions: remaining compound after 24 h
Protocol: HSA binding assay. The assessment of compounds binding to HSA was performed by incubating a fixed concentration of the compound with different concentrations of immobilized HSA, using the TRANSILXL HSA Binding Kit (TMP-0210- 2096, Sovicell). An 8-well unit of the TRANSIL assay plate was used for each compound : six wells contain increasing concentrations of HSA immobilized on silica beads suspended in PBS at pH 7.4, and two wells contain buffer only and serve as references to account for nonspecific binding. The TRANSIL assay plate was thawed for 3 h at rt and centrifuged at 750g for 5 s. […] After this time, the plate was centrifuged at 750gfor 10 min, and 50 μL of the supernatants were transferred for analytical quantification by HPLC-MS using selected ion monitoring (SIM). The binding percentage was calculated from the remaining free compound concentration in the supernatant of each well, using the spreadsheet and algorithms supplied with the kit.
Stability in mouse serum. […] Supernatants were then analyzed by HPLC-MS using SIM mode, and quantification was estimated by using the peak area integration normalized with an internal standard.
Stability assay in mouse liver homogenate. Stability of test compounds and reference compound propranolol was determined by incubation in liver homogenates following previously reported procedure. […]

- liver homogenate stability (%): 65%
Compound: CS(=N)(=O)c1ccc(-c2ccccc2OCF)cc1 (stereo not shown) [Compound 26, 2-(Fluoromethoxy)-4′-(S-methanesulfonimidoyl)-1,1′-biphenyl]
